Data reported in article PMC10322725, “Assimilatory sulfate reduction in the marine methanogen Methanothermococcus thermolithotrophicus” (Nature Microbiology, 2023).

Key:
MtPAPSR [1] = molecular target: T1, MtPAPSR (Methanothermococcus thermolithotrophicus, UniProt A0AA82WPC4); test: coupled assay, oxidation of reduced methyl viologen at […] nm; format: biochemical; details: PAPS generated in situ by MtATPS and MtAPSK, PAP removed by MtPAPP; HEPES pH 7.0, Mn2+, Mg2+, 45 °C, anaerobic
T1 construct: alpha and beta co-expressed in E. coli from pET-28a(+) NcoI/BamHI, C-terminal His-tag on alpha, anaerobic purification; alpha2beta2 heterotetramer; with Adenylylsulfate reductase subunit beta (PAPS reductase beta subunit)

MtPAPP [2] = molecular target: T2, MtPAPP (Methanothermococcus thermolithotrophicus, UniProt A0AA82WPC3); test: X-ray crystallography, […] Å; format: binding; details: co-crystallized with 2 mM PAP and MnCl2; partially occupied Mn2+ in active site
T2 construct: recombinant in E. coli, codon-optimized gene in pET-28a(+) NdeI/BamHI, HisTrap, tag cleaved if necessary; DHH domain 1-180, linker 181-210, DHHA1 211-315
T2 sequence (A0AA82WPC3 1-315): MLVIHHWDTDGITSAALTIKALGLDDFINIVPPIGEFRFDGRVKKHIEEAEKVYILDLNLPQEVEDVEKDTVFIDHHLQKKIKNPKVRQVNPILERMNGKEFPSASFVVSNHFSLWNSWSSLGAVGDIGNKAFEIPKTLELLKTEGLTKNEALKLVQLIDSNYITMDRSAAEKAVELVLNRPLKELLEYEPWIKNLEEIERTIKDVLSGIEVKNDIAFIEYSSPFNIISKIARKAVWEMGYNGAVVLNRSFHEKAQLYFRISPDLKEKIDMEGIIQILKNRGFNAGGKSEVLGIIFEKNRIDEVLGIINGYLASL

[3] = molecular target: APS kinase from Methanothermococcus thermolithotrophicus (MtAPSK) (Methanothermococcus thermolithotrophicus); test: crystal structure; MtAPSK co-crystallized with 2 mM MgCl2, apo state with bound phosphate, sitting drop, 18 °C, aerobic
MtAPSK = molecular target: T3, MtAPSK (Methanothermococcus thermolithotrophicus, UniProt A0AA82WPC2); test: coupled NADH oxidation assay with MtATPS, pyrophosphatase, pyruvate kinase/lactate dehydrogenase; format: biochemical; details: APS generated in situ by MtATPS; 2 mM ATP, Mg2+, pH 7.0, 35 °C
T3 construct: gene cysC; recombinant in E. coli, codon-optimized gene in pET-28a(+) NdeI/BamHI, HisTrap, tag cleaved if necessary; homodimer

MtATPS = molecular target: T4, MtATPS (Methanothermococcus thermolithotrophicus, UniProt A0AA82WPC1); test: coupled NADH oxidation assay with MtAPSK, pyrophosphatase, pyruvate kinase/lactate dehydrogenase; format: biochemical; details: 2.5 mM Na2SO4, 2 mM ATP, Mg2+, pH 7.0, 35 °C; pyrophosphatase rate-limiting
T4 construct: gene sat; recombinant in E. coli, codon-optimized gene in pET-28a(+) NdeI/BamHI, HisTrap, tag cleaved if necessary; homodimer; domains 1-156, 164-314, 320-382
T4 sequence (A0AA82WPC1 4-385): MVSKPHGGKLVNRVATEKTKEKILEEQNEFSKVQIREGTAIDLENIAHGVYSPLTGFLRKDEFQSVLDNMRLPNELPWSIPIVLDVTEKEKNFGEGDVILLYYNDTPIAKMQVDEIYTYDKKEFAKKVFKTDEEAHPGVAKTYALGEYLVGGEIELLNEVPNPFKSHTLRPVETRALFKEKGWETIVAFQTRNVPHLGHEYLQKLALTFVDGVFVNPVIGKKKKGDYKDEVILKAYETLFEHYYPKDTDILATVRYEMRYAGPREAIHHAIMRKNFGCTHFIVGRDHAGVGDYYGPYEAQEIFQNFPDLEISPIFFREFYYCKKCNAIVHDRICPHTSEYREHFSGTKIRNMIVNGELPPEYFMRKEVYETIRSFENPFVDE

MtPAPP [4] = molecular target: T2, MtPAPP; test: malachite green phosphate assay; format: biochemical; details: 40 µM PAP, 50 µM MnCl2, Tris/HCl pH 7.64, 40 °C
MtPAPSR [5] = molecular target: T1, MtPAPSR; test: X-ray crystallography, […] Å; format: binding; details: bound in alpha subunit; crystal for phasing co-crystallized with 0.5 mM FAD
[6] = molecular target: ATP sulfurylase from Methanothermococcus thermolithotrophicus (MtATPS) (Methanothermococcus thermolithotrophicus); test: SEC; size exclusion chromatography of purified MtATPS; conditions in the supplement

T1 sequence (A0AA82WPC4 entry or part of it): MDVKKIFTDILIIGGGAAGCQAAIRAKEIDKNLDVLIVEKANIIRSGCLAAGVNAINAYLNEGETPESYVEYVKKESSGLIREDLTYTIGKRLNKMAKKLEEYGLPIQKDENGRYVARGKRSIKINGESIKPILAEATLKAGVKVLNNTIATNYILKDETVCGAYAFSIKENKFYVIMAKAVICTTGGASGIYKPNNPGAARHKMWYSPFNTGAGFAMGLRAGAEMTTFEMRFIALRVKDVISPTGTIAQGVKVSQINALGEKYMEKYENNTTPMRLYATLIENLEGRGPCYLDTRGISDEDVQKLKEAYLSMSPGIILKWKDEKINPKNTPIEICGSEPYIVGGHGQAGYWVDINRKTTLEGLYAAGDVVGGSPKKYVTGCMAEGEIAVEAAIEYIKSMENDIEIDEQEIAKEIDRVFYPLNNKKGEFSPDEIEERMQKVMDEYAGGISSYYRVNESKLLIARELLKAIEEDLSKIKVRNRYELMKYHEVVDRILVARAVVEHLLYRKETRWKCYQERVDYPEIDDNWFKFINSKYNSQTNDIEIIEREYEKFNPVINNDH
T1 sequence (A0AA82WPC5 entry or part of it, further chain): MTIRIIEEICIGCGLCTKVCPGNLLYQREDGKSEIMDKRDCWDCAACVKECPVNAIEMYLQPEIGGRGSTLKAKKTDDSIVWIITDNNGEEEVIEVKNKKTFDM
T3 sequence (A0AA82WPC2 entry or part of it): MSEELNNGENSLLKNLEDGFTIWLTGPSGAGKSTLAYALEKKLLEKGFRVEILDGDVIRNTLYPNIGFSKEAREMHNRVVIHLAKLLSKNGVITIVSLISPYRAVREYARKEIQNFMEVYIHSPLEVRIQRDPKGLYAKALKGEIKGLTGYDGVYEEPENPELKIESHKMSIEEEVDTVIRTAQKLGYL

Nc1ncnc2c1ncn2[C@@H]1O[C@H](COP(=O)(O)OS(=O)(=O)O)[C@@H](OP(=O)(O)O)[C@H]1O [PAPS]
coupled assay, oxidation of reduced methyl viologen at 600 nm (MtPAPSR [1]): MtATPS, a pyrophosphatase and the MtAPSK were used to generate PAPS

Nc1ncnc2c1ncn2[C@@H]1O[C@H](COP(=O)(O)O)[C@@H](O)[C@H]1O [AMP]
X-ray crystallography, 3.1 Å (MtPAPP [2]): contained the product AMP and an ion in its active site

APS kinase from Methanothermococcus thermolithotrophicus (MtAPSK) (enzyme)
stoichiometry N [3]: 2

Nc1ncnc2c1ncn2[C@@H]1O[C@H](COP(=O)(O)OP(=O)(O)OP(=O)(O)O)[C@@H](O)[C@H]1O [ATP]
coupled NADH oxidation assay with MtATPS, pyrophosphatase, pyruvate kinase/lacta (MtAPSK): determined by the production of ADP which was coupled to NADH oxidation | coupled NADH oxidation assay with MtAPSK, pyrophosphatase, pyruvate kinase/lacta (MtATPS): activity of the recombinantly expressed MtATPS and MtAPSK was tested via a coupled assay

Nc1ncnc2c1ncn2[C@@H]1O[C@H](COP(=O)(O)O)[C@@H](OP(=O)(O)O)[C@H]1O [PAP]
malachite green phosphate assay (MtPAPP [4]): produced inorganic phosphate (Pi) from PAP at fast rates

Cc1cc2nc3c(=O)[nH]c(=O)nc-3n(C[C@H](O)[C@H](O)[C@H](O)COP(=O)(O)OP(=O)(O)OC[C@H]3O[C@@H](n4cnc5c(N)ncnc54)[C@H](O)[C@@H]3O)c2cc1C [FAD]
X-ray crystallography, 1.45 Å (MtPAPSR [5]): the α subunit, containing the flavin adenine dinucleotide (FAD)

ATP sulfurylase from Methanothermococcus thermolithotrophicus (MtATPS) (enzyme)
stoichiometry N [6]: 2

O=S(=O)(O)O [SO42−]
coupled NADH oxidation assay with MtAPSK, pyrophosphatase, pyruvate kinase/lacta (MtATPS): activity of the recombinantly expressed MtATPS and MtAPSK was tested via a coupled assay
